Experimental data reported in patent US9290457B2, “Substituted dihydropyrimidinones and their use as inhibitors of neutrophil elastase activity” (Boehringer Ingelheim International GmbH, priority 2014, dated 2016).
Converted amounts (≈) assume the structure as drawn.

How the values were obtained:
Caco-2 cells = assay: Drug transport across human Caco-2 cells; format: in vitro ADME; conditions: pH 7.2, 37° C.; for PEAB: apical-to-basal; for PEBA: basal-to-apical
Source text: (§1) Assay for Determination of Drug Transport Across Human Caco-2 Cells
(§2) The assay provides information on the potential of a compound to pass the cell membrane, on the extent of oral absorption as well as on whether the compound is actively transported by uptake and/or efflux transporters. For the measurement of permeability across polarized, confluent human cancer colon carcinoma cells 2 (Caco-2) cell monolayers grown on permeable filter supports are used as the in vitro absorption model.
(§3) Apparent permeability coefficients (PE) of the compounds across the Caco-2 monolayers are measured (pH 7.2, 37° C.) in apical-to-basal (AB) (absorptive) and basal-to-apical (BA) (secretory) transport direction. AB permeability (PEAB) represents drug absorption from the intestine into the blood and BA permeability (PEBA) drug secretion from the blood back into the intestine via both passive permeability as well as active transport mechanisms mediated by efflux and uptake transporters that are expressed on the Caco-2 cells. The compounds are assigned to permeability/absorption classes by comparison of the AB permeabilities with the AB permeabilities of reference compounds with known in vitro permeability and oral absorption in the human. Identical or similar permeabilities in both transport directions indicate passive permeation, vectorial permeability points to additional active transport mechanisms. […] Active transport is concentration-dependently saturable.
(§4) Caco-2 cells (1-2*10^5 cells/cm^2 area) are seeded on filter inserts (Costar transwell polycarbonate or PET filters, 0.4 μm pore size) and cultured (DMEM) for 10 to 25 days. Compounds are dissolved in appropriate solvent (like DMSO, 1-20 mM stock solutions). Stock solutions are diluted with HTP-4 buffer (128.13 mM NaCl, 5.36 mM KCl, 1 mM MgSO4, 1.8 mM CaCl2, 4.17 mM NaHCO3, 1.19 mM Na2HPO4x7H2O, 0.41 mM NaH2PO4xH2O, 15 mM HEPES, 20 mM glucose, pH 7.2) to prepare the transport solutions (typically 10 μM compound, final DMSO<=0.5%). The transport solution (TL) is applied to the apical or basolateral donor side for measuring A-B or B-A permeability (3 filter replicates), respectively. The receiver side contains HTP-4 buffer supplemented with 2% BSA. Samples are collected at the start and end of experiment from the donor and at various time intervals for up to 2 hours also from the receiver side for concentration measurement by LC-MS/MS or scintillation counting. Sampled receiver volumes are replaced with fresh receiver solution.
(§5) The apparent permeability coefficients (PEAB and PEBA) of selected compounds in the Caco-2 drug transport assay described above are listed in Table 5.

Aqueous solubility = format: physicochemical; conditions: McIlvaine buffer pH 6.8, 2.5% DMSO; for Aqueous solubility: 24 h; for solubility at 24 h: McIlvaine buffer with 2.5% DMSO, aqueous buffer, kinetic from dmso stock
Description: Assay for Determination of Aqueous Solubility
Starting from a 10 mM DMSO stock solution, aliquots are diluted with acetonitrile/water (1/1) and McIlvaine buffer pH 6.8, respectively. After 24 h of shaking, the solutions or suspensions are filtered and analyzed by LC-UV. The amount dissolved in buffer is compared to the amount dissolved in the acetonitrile/water (1/1) solution. Solubility is measured from 0.001 to 0.125 mg/ml at a DMSO concentration of 2.5%. If more than 90% of the compound is dissolved in buffer, the value is marked with “>”.

[1] = Drug transport across human Caco-2 cells; format: in vitro ADME; conditions: human, Caco-2, pH 7.2, 37° C.; for Papp A→B at 10 μM: apical-to-basal, read-out: PEAB; for Papp B→A at 10 μM: basal-to-apical, read-out: PEBA
Source text: as §1, §2, §3, §4, §5

cytochrome P450 2C19 = cytochrome P450 2C19 (Homo sapiens (Human), UniProt P33261); assay: Cytochrome P450 2C19 inhibition; format: in vitro ADME; conditions: human liver microsomes, Mephenytoin hydroxylation; read-out: IC50 CYP2C19 inhibition
Sequence of cytochrome P450 2C19 (P33261 whole entry): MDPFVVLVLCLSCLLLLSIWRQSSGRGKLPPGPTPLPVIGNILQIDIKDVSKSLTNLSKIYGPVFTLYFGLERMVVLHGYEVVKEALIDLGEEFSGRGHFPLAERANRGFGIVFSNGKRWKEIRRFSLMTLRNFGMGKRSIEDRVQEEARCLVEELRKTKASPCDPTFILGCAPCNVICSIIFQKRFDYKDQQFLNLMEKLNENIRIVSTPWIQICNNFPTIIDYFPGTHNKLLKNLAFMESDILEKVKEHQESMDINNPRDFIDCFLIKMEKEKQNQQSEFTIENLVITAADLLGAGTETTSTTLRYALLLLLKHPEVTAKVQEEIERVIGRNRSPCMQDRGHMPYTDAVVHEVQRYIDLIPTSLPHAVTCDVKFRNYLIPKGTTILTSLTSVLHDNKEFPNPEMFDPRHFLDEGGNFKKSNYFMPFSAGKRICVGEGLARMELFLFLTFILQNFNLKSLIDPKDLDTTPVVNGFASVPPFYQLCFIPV
Description: Assay for Determination of Cytochrome P450 2C19 Inhibition
(§6) All assays are carried out on a robotic system in 96 well plates. The final incubation volume contains TRIS buffer (0.1 M), MgCl2 (5 mM), human liver microsomes (0.5 mg/ml), (S)-Mephenytoin (70 μM) and the test compound at five different concentrations or no compound (high control) in duplicate (e.g. highest concentration 10-50 μM with subsequent serial 1:4 dilutions). Following a short preincubation period, reactions are started with the cofactor (NADPH, 1 mM) and stopped by cooling the incubation down to 8° C. and subsequently by addition of one volume of acetonitrile. An internal standard solution—usually the stable isotope of the formed metabolite—is added after quenching of incubations. Peak area analyte (=metabolite formed) and internal standard is determined by LC-MS/MS. The resulting peak area ratio analyte to internal standard in these incubations is compared to a control activity containing no test compound.
(§7) If the inhibition of the reaction is already >50% at the lowest concentration of the test compound, the IC50 is assigned “<lowest concentration tested” (usually <0.4 μM). If the inhibition of the reaction is still <50% at the highest concentration of the test compound, the IC50 is assigned “>highest concentration tested” (usually >50 μM).

cytochrome P450 2C9 = cytochrome P450 2C9 (Homo sapiens (Human), UniProt P11712); assay: Cytochrome P450 2C9 inhibition; format: in vitro ADME; conditions: human liver microsomes, Diclofenac hydroxylation; read-out: IC50 CYP2C9 inhibition
Sequence of cytochrome P450 2C9 (P11712 whole entry): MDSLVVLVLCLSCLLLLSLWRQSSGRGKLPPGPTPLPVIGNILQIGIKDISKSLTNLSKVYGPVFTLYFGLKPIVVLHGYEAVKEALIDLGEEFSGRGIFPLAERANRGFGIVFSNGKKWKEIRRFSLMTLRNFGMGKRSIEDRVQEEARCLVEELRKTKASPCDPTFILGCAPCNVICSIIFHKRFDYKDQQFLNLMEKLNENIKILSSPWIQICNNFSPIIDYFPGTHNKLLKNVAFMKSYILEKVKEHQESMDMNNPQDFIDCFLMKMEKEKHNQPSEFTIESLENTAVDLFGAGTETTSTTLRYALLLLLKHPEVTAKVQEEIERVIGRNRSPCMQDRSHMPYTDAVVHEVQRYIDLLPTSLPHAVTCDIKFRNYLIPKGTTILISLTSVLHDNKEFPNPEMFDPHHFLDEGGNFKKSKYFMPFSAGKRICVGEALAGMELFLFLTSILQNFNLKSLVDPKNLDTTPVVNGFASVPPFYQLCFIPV
Description: Assay for Determination of Cytochrome P450 2C9 Inhibition
as §6, with “(0.1” for “(0.5”, “Diclofenac (10” for “(S)-Mephenytoin (70”
as §7

PEAB (Caco-2 cells) [×10⁻⁶ cm/s]	PEBA (Caco-2 cells) [×10⁻⁶ cm/s]	Aqueous solubility (Aqueous solubility) [µg/mL]	Papp A→B at 10 μM [1] [×10⁻⁶ cm/s]	Papp B→A at 10 μM [1] [×10⁻⁶ cm/s]	solubility at 24 h (Aqueous solubility) [µg/mL]	IC50 (cytochrome P450 2C19) [µM]	IC50 (cytochrome P450 2C9) [µM]	Structure (SMILES)
44	74	76						CC(=O)C1=C(C)N(c2cccc(C(F)(F)F)c2)C(=O)N(C)C1c1ccc(C#N)cc1C(=O)NC1CC1 (stereo not shown) [Example 1.8]
39	78	66						CC(=O)C1=C(C)N(c2cccc(C(F)(F)F)c2)C(=O)N(C)C1c1ccc(C#N)cc1C(=O)NCCF (stereo not shown) [Example 1.10]
			5.1	92	73 (≈ 130 µM)			CC(=O)C1=C(C)N(c2cccc(C(F)(F)F)c2)C(=O)N(C)C1c1ccc(C#N)cc1C(=O)N1CCn2ncnc2C1 (stereo not shown) [Example 1.73]
33	80	51				> 50	> 50	CNC(=O)c1cc(C#N)ccc1[C@@H]1C(C(C)=O)=C(C)N(c2cccc(C(F)(F)F)c2)C(=O)N1C [Example 13.1]

More lines, now with the values behind:

Structure (SMILES)	PEAB (Caco-2 cells) [×10⁻⁶ cm/s]	PEBA (Caco-2 cells) [×10⁻⁶ cm/s]	Aqueous solubility (Aqueous solubility) [µg/mL]	Papp A→B at 10 μM [1] [×10⁻⁶ cm/s]	Papp B→A at 10 μM [1] [×10⁻⁶ cm/s]	solubility at 24 h (Aqueous solubility) [µg/mL]	IC50 (cytochrome P450 2C19) [µM]	IC50 (cytochrome P450 2C9) [µM]
CC(=O)C1=C(C)N(c2cccc(C(F)(F)F)c2)C(=O)N(C)C1c1ccc(C#N)cc1C(=O)NCC#N (stereo not shown) [Example 1.6]	10	81	70					
CC(=O)C1=C(C)N(c2cccc(C(F)(F)F)c2)C(=O)N(C)C1c1ccc(C#N)cc1C(=O)NCC(C)(C)O (stereo not shown) [Example 1.22]				7.8	81	65 (≈ 123 µM)		
CC(=O)C1=C(C)N(c2cccc(C(F)(F)F)c2)C(=O)N(C)[C@@H]1c1ccc(C#N)cc1-c1ccc(=O)n(C)c1 [Example 16, 4-[(R)-5-Acetyl-3,6-dimethyl-2-oxo-1-(3-trifluoromethyl-phenyl)-1,2,3,4-tetrahydro-pyrimidin-4-yl]-3-(1-methyl-6-oxo-1,6-dihydro-pyridin-3-yl)-benzonitrile]				12	120	73 (≈ 140 µM)	> 50	> 50
CC(=O)C1=C(C)N(c2cccc(C(F)(F)F)c2)C(=O)N(C)[C@@H]1c1ccc(C#N)cc1-c1ccn(C)c(=O)c1 [Example 17, 4-[(R)-5-Acetyl-3,6-dimethyl-2-oxo-1-(3-trifluoromethyl-phenyl)-1,2,3,4-tetrahydro-pyrimidin-4-yl]-3-(1-methyl-2-oxo-1,2-dihydro-pyridin-4-yl)-benzonitrile]				11	114	62 (≈ 119 µM)		
